The text below walks through data of publication PMC5051147, “Ester Hydrolysis Differentially Reduces Aconitine-Induced Anti-hypersensitivity and Acute Neurotoxicity: Involvement of Spinal Microglial Dynorphin Expression and Implications for Aconitum Processing” (Frontiers in Pharmacology, 2016).

What is called EC50 is the midpoint of the concentration-response curve.

This test concerns prodynorphin gene expression in primary cultures of spinal microglia. As to the kind of experiment: Prodynorphin gene expression in cultured primary spinal microglia (real-time quantitative PCR). In kind it is cell-based, rat. On the procedure: Glial cells were isolated from the 1-day-old neonatal rats. The isolated spinal cords were minced and then incubated with trypsin. Dissociated cells were suspended in 75-cm^2 tissue culture flasks (1 × 10^7 cells/flask) precoated with poly-L-lysine and maintained in a 5% CO2 incubator at 37°C. After culture for 10 days, the microglial cells were prepared as floating cell suspensions by shaking the flask at 260 rpm for 2 h. The aliquots were transferred to plates, and the unattached cells were removed by washing with serum-free Dulbecco’s modified Eagle’s medium.
RNA extraction, reverse transcription, and real-time quantitative PCR were performed as previously described ([Chen et al., 2012]). The spinal lumbar enlargements of rats were collected and mechanically homogenized with an electronic microhomogenizer at 4,000 rpm for 10 s in TRIzol on ice. Total RNA from the spinal lumbar enlargements were isolated using TRIzol reagent (Invitrogen, Grand Island, NY, USA). A 1-μg sample of total RNA was reverse-transcribed with a ReverTra Ace qPCR RT-Kit (Toyobo, Japan). Real-time quantitative PCR was carried out with the Mastercycler ep realplex (Eppendorf, Germany) using the RealmasterMix (SYBR Green I) (Toyobo). The fold change was calculated with the 2^-ΔΔCt method after normalization to the gene of gapdh. […]
The percentage of maximal possible effect (% MPE) was calculated using the following formula: (postdrug threshold in ipsilateral hindlimb – baseline threshold in ipsilateral hindlimb)/(baseline threshold in contralateral hindlimb – baseline threshold in ipsilateral hindlimb) × 100 ([Bowersox et al., 1996]). […] For the dose-response curve analysis, the parameters (i.e., minimum effect; Emax, median effective concentration or dose, or median toxic or lethal dose [EC50, ED50, TD50, or LD50], and Hill coefficient [n]) were calculated from the individual dose-response curves using the Prism program (version 5.01, GraphPad Software, San Diego, CA, USA). […]
Primary cultures of microglial cells taken from the spinal cords of the neonatal rats were treated with a variety of concentrations of aconitine (1 × 10^-8, 3 × 10^-8, 1 × 10^-7, 3 × 10^-7, and 1 × 10^-6 M), benzolyaconine (3 × 10^-7, 1 × 10^-6, 3 × 10^-6, 1 × 10^-5, 3 × 10^-5, and 1 × 10^-4 M) and aconine (1 × 10^-4, 3 × 10^-4, 1 × 10^-3, 3 × 10^-3, and 1 × 10^-2 M) for 2 h. As the bulleyaconitine A-increased dynorphin A level measured by the enzyme-linked immunosorbent assay was in parallel with the prodynorphin gene expression in spinal microglia from neonatal and adult rats ([Li et al., 2016]), the expression of the cellular prodynorphin gene encoding dynorphin A was only measured in this study using real-time quantitative PCR. […]

As for `CCN1C[C@]2(COC)[C@H](O)C[C@H](OC)[C@@]34[C@@H]5C[C@@]6(O)[C@H](OC(=O)c7ccccc7)[C@@H]5[C@@](OC(C)=O)([C@@H]([C@H](OC)[C@H]23)[C@@H]14)[C@@H](O)[C@@H]6OC` [Aconitine, aconitine], under “EC50 32 nM versus 45 nM”, the “Potency on microglial dynorphin A expression relative to bulleyaconitine A (more potent by)” value is given as “approximately 0.5 fold”. For the same compound, the EC50 (Rattus norvegicus, primary spinal microglia of neonatal rats, 2 h incubation, read-out: EC50, stimulation of prodynorphin gene (dynorphin A) expression) is 32 nM.
